Test system: a variety of test species
Assay: Post-emergence herbicidal activity
Format: in vivo
Parameters: key to ABUTH (Abutilon theophrasti) damage score / AMARE (Amaranthus retroflexus) damage score / ALOMY (Alopecurus myosuroides) damage score / ECHCG (Echinochloa crus-galli) damage score / ZEAMX (Zea mays) damage score / SOLNI (Solanum nigrum) damage score: 0 = no damage to plant, 5 = total damage to plant
Conditions: evaluated after 13 days
Summary of the method: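 Damage on a 0–5 scale (5 = plant killed) was rated 13 days after treatment. Test species had been sown in standard soil and raised 8 days under glasshouse conditions of 24/16 °C, 14 h light, 65% humidity. They were then sprayed with aqueous solution from an acetone/water 50:50 formulation containing 0.5% Tween 20.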

Compound | ABUTH (Abutilon theophrasti) damage score (rate 1000 g/ha) | ALOMY (Alopecurus myosuroides) damage score (rate 1000 g/ha) | AMARE (Amaranthus retroflexus) damage score (rate 1000 g/ha) | ECHCG (Echinochloa crus-galli) damage score (rate 1000 g/ha) | SETFA (Setaria faberi) damage score (rate 1000 g/ha) | ZEAMX (Zea mays) damage score (rate 1000 g/ha) | ABUTH (Abutilon theophrasti) damage score (rate 250 g/ha) | ALOMY (Alopecurus myosuroides) damage score (rate 250 g/ha) | AMARE (Amaranthus retroflexus) damage score (rate 250 g/ha) | ECHCG (Echinochloa crus-galli) damage score (rate 250 g/ha) | SETFA (Setaria faberi) damage score (rate 250 g/ha) | ZEAMX (Zea mays) damage score (rate 250 g/ha)
COC1=C(C)C(=O)N(c2cc(C)c(-c3ccccc3C)cn2)C1O (stereo not drawn) [AD66] | 4 | 1 | 5 | 4 | 5 | 0 |  |  |  |  |  | 
COC1=C(C)C(=O)N(c2cc(C(F)(F)Cl)ccn2)C1O (stereo not drawn) [AD67] | 5 | 4 | 5 | 5 | 5 | 1 |  |  |  |  |  | 
CCOC(=O)c1cnc(N2C(=O)C(C)=C(OC)C2O)cc1Cl (stereo not drawn) [AD68] | 3 | 1 | 5 | 4 | 5 | 1 |  |  |  |  |  | 
COC1=C(C)C(=O)N(c2cc(Cl)c(Br)cn2)C1O (stereo not drawn) [AD69] | 0 | 2 | 4 | 3 | 5 | 1 |  |  |  |  |  | 
COC1=C(C)C(=O)N(c2cc(Cl)c(-c3ccccc3)cn2)C1O (stereo not drawn) [AD70] |  |  |  |  |  |  | 4 | 3 | 5 | 1 | 3 | 1
CCc1cc(N2C(=O)C(C)=C(OC)C2O)ncc1C=C(C)C (stereo not drawn) [AD71] | 4 | 2 | 5 | 3 | 5 | 2 |  |  |  |  |  | 
CCCOc1cnc(N2C(=O)C(C)=C(OC)C2O)cc1C(F)(F)F (stereo not drawn) [AD72] | 5 | 5 | 5 | 5 | 5 | 2 |  |  |  |  |  | 
C=CCCOc1cnc(N2C(=O)C(C)=C(OC)C2O)cc1C(F)(F)F (stereo not drawn) [AD73] | 5 | 4 | 5 | 4 | 5 | 1 |  |  |  |  |  | 
COC1=C(C)C(=O)N(c2cc(C(F)(F)F)c(OCc3cccc(OC)c3)cn2)C1O (stereo not drawn) [AD74] | 3 | 2 | 5 | 2 | 5 | 1 |  |  |  |  |  | 
COC1=C(C)C(=O)N(c2cc(C(F)(F)F)c(OC3CCC3)cn2)C1O (stereo not drawn) [AD75] |  |  |  |  |  |  | 5 | 4 | 5 | 2 | 4 | 1
COC1=C(C)C(=O)N(c2cc(C(F)(F)F)c(OCCc3cccs3)cn2)C1O (stereo not drawn) [AD76] |  |  |  |  |  |  | 4 | 2 | 4 | 1 | 3 | 1
C=C(C)COc1cnc(N2C(=O)C(C)=C(OC)C2O)cc1C(F)(F)F (stereo not drawn) [AD77] |  |  |  |  |  |  | 5 | 3 | 5 | 1 | 4 | 0
CCCCOc1cnc(N2C(=O)C(C)=C(OC)C2O)cc1C(F)(F)F (stereo not drawn) [AD78] | 4 | 3 | 5 | 5 | 5 | 2 |  |  |  |  |  | 
COC1=C(C)C(=O)N(c2cc(C(F)(F)F)c(OCCCF)cn2)C1O (stereo not drawn) [AD79] | 5 | 5 | 5 | 5 | 5 | 2 |  |  |  |  |  | 
COC1=C(C)C(=O)N(c2cc(C(F)(F)F)c(OCCOC(C)(C)C)cn2)C1O (stereo not drawn) [AD80] | 4 | 3 | 5 | 4 | 5 | 1 |  |  |  |  |  | 

Reference: US9611248B2, “Chemical compounds” (Syngenta Participations AG, priority 2013, dated 2017)
